The numbers were not newly measured in patent US20210198629A1, “COMPOSITIONS AND METHODS FOR INCREASING BEIGING OF WHITE ADIPOSE TISSUE” (University of Georgia Research Foundation, Inc., priority 2018, published 2021), which cites them from elsewhere.

The structures appear in SMILES notation. Read-outs that look alike come from different tables or passages of the source.

In series [1] the test system is Ucp1. The conditions noted are these: cited from earlier work.
For series [2], the system named is EGFR mutant PC9 cancer cells. To be noted: cited from earlier work.
Series [3] relates to rhabdoid tumor cells. To be noted: combinatorial treatment with cytostatic compounds (e.g., cisplatin); cited from earlier work.
Series [4] has as its target T1, BRD9 (Homo sapiens, UniProt Q9H8M2).
T1 sequence (Q9H8M2 1-597): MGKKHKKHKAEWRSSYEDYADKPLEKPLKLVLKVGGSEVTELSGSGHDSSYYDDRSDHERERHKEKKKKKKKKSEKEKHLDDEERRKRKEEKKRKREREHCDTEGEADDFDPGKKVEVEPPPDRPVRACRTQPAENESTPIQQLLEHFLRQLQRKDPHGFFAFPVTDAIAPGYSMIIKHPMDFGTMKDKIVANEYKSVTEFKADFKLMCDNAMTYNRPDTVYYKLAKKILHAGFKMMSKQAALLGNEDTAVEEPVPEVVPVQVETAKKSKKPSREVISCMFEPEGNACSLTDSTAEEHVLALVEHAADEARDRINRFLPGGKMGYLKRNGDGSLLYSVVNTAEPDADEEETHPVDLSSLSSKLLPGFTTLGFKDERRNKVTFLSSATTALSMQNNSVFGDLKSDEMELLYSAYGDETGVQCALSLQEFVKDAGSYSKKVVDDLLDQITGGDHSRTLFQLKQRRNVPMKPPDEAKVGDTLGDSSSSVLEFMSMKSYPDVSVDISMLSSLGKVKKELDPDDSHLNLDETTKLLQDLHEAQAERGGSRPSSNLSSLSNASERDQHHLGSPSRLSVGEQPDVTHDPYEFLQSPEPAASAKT
The conditions noted are these: cited from earlier work.

Consider `C=C(c1ccc(C(=O)O)cc1)c1cc2c(cc1C)C(C)(C)CCC2(C)C` [Bexarotene], for which the “WAT beiging, increase of Ucp1” value in series [1] (oral administration 50 mg/kg/d, for 28 days, only in subcutaneous WATs) is listed as 1.5 fold.
With `C/C=C/Cn1cc(-c2cc(OC)c(C(=O)N3CCOCC3)cc2OC)c2cc[nH]c2c1=O` [GNE-375], in series [2] (EGFR mutant PC9 cancer cells), the drug resistance development result is reported as “prevent the drug resistance development”. In series [2] (PC9 study), the cell viability result is on record as “little effects”, the “expression of ALDH1A1” value is reported as “decreases” and the global gene expression entry was “little effects”.
For `COc1ccc(Br)cc1/C=C1\SC(=O)N(Cc2ccc(C)cc2)C1=O` [GQ-16], in series [1] (oral administration 40 mg/kg/d, for 14 days), the “WAT beiging, increase of Ucp1” value was 5 fold.
For the compound `CCn1cc(-c2cccc(C(F)(F)F)c2)c2sc(C(=N)NC3CCS(=O)(=O)CC3)cc2c1=O` [I-BRD9, N′-(1,1-dioxothian-4-yl)-5-ethyl-4-oxo-7-[3-(trifluoromethyl)phenyl]thieno[3,2-c]pyridine-2-carboximidamide], in series [3], the “proliferation of rhabdoid tumor cells” value is given as “synergistically inhibit”. The “selectivity over the BET family” value in series [4] (BRD9 vs BET family) was above 700 fold. Moreover, the “selectivity over the highly homologous BRD7” value in series [4] (BRD9 vs BRD7) is 200 fold.
Turning to `CC[C@H](CO)Nc1nc(NCc2ccccc2)c2ncn(C(C)C)c2n1` [Roscovitine], the WAT beiging entry in series [1] (intraperitoneal injection 50 mg/kg/d for 42 days) is recorded as “induced WAT beiging”.
In the case of `CCc1cc2c(c(CC)n1)CCC(=O)N2Cc1ccc(-c2ccccc2-c2nn[nH]n2)cc1` [ZD7155], in series [1] (intraperitoneal injection 1 mg/kg/d for 14 days), the “WAT beiging, increase of Ucp1” value was “less than 2 fold”.
